Structures are written as SMILES.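 Dose response: 5 concentrations. Exposure: 48 h. Format: 96-well plates. Endpoint: linear interpolation; highest concentration if not reached. Definition used: TGI = concentration required for complete inhibition of growth.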

The subject of the first experiment is OVCAR-5 ovarian. Description: inhibition of tumour cell growth, NCI panel, 48 h.
With `O=c1nc2c(c(-c3ccccc3Cl)[nH]1)COC/C2=C\c1ccccc1Cl`, the TGI is > 100 µM.

The test system of another experiment is OVCAR-4 ovarian. The experiment can be described thus: inhibition of tumour cell growth, NCI panel, 48 h.
On to `O=c1[nH]/c(=C/c2ccc(OCc3ccccc3)cn2)c(=O)[nH]/c1=C/c1ccc(O)cc1`, for which the TGI turned out to be 0.59 µM.

For the molecule `N#C/C(=C\n1ccc(=O)[nH]c1=S)C(N)=O`, the TGI is > 100 µM.

As for `O=C(OCC1OC2OC(c3ccccc3)(n3ccc4c([N+](=O)[O-])ccnc43)OC2C1OC(=O)c1ccccc1)c1ccccc1` (stereo unspecified), the TGI was > 100 µM.

`Cc1ccc(/C(O)=C/C(=O)C(=O)/C=C(\O)c2ccc(C)cc2C)c(C)c1` yielded a TGI of 9.04 µM.

Turning to `CC1=COC(C)(C=C(C#N)C#N)CC1` (stereo unspecified), the TGI was > 100 µM.

As to `O=C(NCCCCCCNCc1cccc2ccccc12)Nc1cccc2ccccc12`, the TGI is > 100 µM.

`Cc1ccc([C@H]2CC(=O)C[C@H](c3ccc(C)cc3)C23C(=O)c2ccccc2C3=O)cc1` returned a TGI of 47.2 µM.

Consider `O=c1c2ncn(COCCCl)c2n(-c2ccccc2)c(=S)n1-c1ccccc1`, for which the TGI was > 100 µM.

As for `COc1ccc(/C=N/N=C(\N)NO)c(O)c1`, the TGI was > 10 µM.

Turning to `OCC1OC(n2cnc3c(Cl)nc(Nc4ccccc4)nc32)CC1O` (stereo unspecified), the TGI was > 100 µM.

For `NCCSc1nc2ccccc2c(=O)n1-c1ccccc1`, the TGI was > 100 µM.

Consider `Nc1ccc(N=Nc2ccccc2)cc1`, for which the TGI was > 100 µM.

For the molecule `CN(NC(=O)c1cccs1)C1=NCCCN1`, the TGI was > 100 µM.

Regarding `c1cc2nnnn2nc1N1CCCC1`, the TGI was > 100 µM.

Turning to `N#Cc1c(-c2ccccc2)nc(-c2ccccc2)sc1=S`, the TGI is > 100 µM.

In turn, `COc1cc(Nc2c3ccccc3nc3ccccc23)ccc1NS(C)(=O)=O` gave a TGI of 12.3 µM.

On to `CCn1nc2c3c(ncn3C(C)(C)O2)c1=O`, for which the TGI is > 100 µM.

Consider `O=C1CCCCC(=O)OC2(CCCCC2=O)CC1` (stereo unspecified), for which the TGI is > 100 µM.

For `CCCCCC(=O)NC(=S)Nc1nn[nH]n1`, the TGI was > 100 µM.

`CCC(C#N)NC(=O)NC(C#N)CC` (stereo unspecified): the TGI is > 100 µM.

In the case of `C[C@H](N)C(=O)Nc1ccc(-c2nc3ccccc3s2)cc1`, the TGI was 36.6 µM.

For the molecule `CC(=O)O[C@H]1C#C/C=C\C#CC[C@@H]2C(=O)N[C@@H]12`, the TGI was > 100 µM.

For the molecule `Cc1ccc2nc(Cl)c(/C=N/N3C(=O)/C(=C/c4ccccc4S)N=C3c3ccccc3)cc2c1`, the TGI was > 100 µM.

Regarding `CN(O)C(=O)c1cccc(Cl)c1`, the TGI was > 100 µM.

The molecule `CCOP(=O)(OCC)c1c(C(=O)OC)cc(=O)[nH]c1-c1ccc(C)cc1` gave a TGI of 22.5 µM.

Consider `COC(=O)C1=C(C(=O)OC)SC2(S1)C1=C(CCCC1)SC(C(=O)OC)=C2C(=O)OC`, for which the TGI came out at 25.3 µM.

Consider `C1CCC2C(C1)CCCC2NC1=NCCO1` (stereo unspecified), for which the TGI was > 100 µM.

Consider `Cc1cn(C2CC(n3cc(Cn4cc(Br)c(=O)[nH]c4=O)nn3)C(CO)O2)c(=O)[nH]c1=O` (stereo unspecified), for which the TGI was > 100 µM.

Turning to `C1CNCCNCCN1`, the TGI is > 100 µM.

`COc1ccc(O)cc1`: the TGI is > 100 µM.

As to `Cc1cn(C(Cc2ccccc2)OCCO)c(=O)[nH]c1=O` (stereo unspecified), the TGI was > 100 µM.

For the molecule `O=c1nc2c(c(-c3ccccc3Cl)[nH]1)COC/C2=C\c1ccccc1Cl`, the TGI was > 100 µM.

In a further experiment the test system is A498 renal. The experiment can be described thus: inhibition of tumour cell growth, NCI panel, 48 h.
For `O=c1[nH]/c(=C/c2ccc(OCc3ccccc3)cn2)c(=O)[nH]/c1=C/c1ccc(O)cc1`, the TGI was > 76.7 µM.

For `N#C/C(=C\n1ccc(=O)[nH]c1=S)C(N)=O`, the TGI was > 100 µM.

As to `O=C(OCC1OC2OC(c3ccccc3)(n3ccc4c([N+](=O)[O-])ccnc43)OC2C1OC(=O)c1ccccc1)c1ccccc1` (stereo unspecified), the TGI was > 100 µM.

On to `Cc1ccc(/C(O)=C/C(=O)C(=O)/C=C(\O)c2ccc(C)cc2C)c(C)c1`, for which the TGI was 4.7 µM.

For `CC1=COC(C)(C=C(C#N)C#N)CC1` (stereo unspecified), the TGI was > 100 µM.

As for `O=C(NCCCCCCNCc1cccc2ccccc12)Nc1cccc2ccccc12`, the TGI was > 100 µM.

With `Cc1ccc([C@H]2CC(=O)C[C@H](c3ccc(C)cc3)C23C(=O)c2ccccc2C3=O)cc1`, the TGI is > 100 µM.

With `O=c1c2ncn(COCCCl)c2n(-c2ccccc2)c(=S)n1-c1ccccc1`, the TGI is > 100 µM.

As to `COc1ccc(/C=N/N=C(\N)NO)c(O)c1`, the TGI was > 10 µM.

In the case of `OCC1OC(n2cnc3c(Cl)nc(Nc4ccccc4)nc32)CC1O` (stereo unspecified), the TGI is > 100 µM.

On to `NCCSc1nc2ccccc2c(=O)n1-c1ccccc1`, for which the TGI is > 100 µM.

On to `Nc1ccc(N=Nc2ccccc2)cc1`, for which the TGI is > 100 µM.

`CN(NC(=O)c1cccs1)C1=NCCCN1`: the TGI was > 100 µM.

For `c1cc2nnnn2nc1N1CCCC1`, the TGI is > 100 µM.

On to `N#Cc1c(-c2ccccc2)nc(-c2ccccc2)sc1=S`, for which the TGI is > 100 µM.

The molecule `COc1cc(Nc2c3ccccc3nc3ccccc23)ccc1NS(C)(=O)=O` had a TGI of 19.6 µM.

As to `CCn1nc2c3c(ncn3C(C)(C)O2)c1=O`, the TGI is > 100 µM.

On to `O=C1CCCCC(=O)OC2(CCCCC2=O)CC1` (stereo unspecified), for which the TGI was > 100 µM.

Take `CCCCCC(=O)NC(=S)Nc1nn[nH]n1`: the TGI is > 100 µM.

On to `CCC(C#N)NC(=O)NC(C#N)CC` (stereo unspecified), for which the TGI was > 100 µM.

As for `C[C@H](N)C(=O)Nc1ccc(-c2nc3ccccc3s2)cc1`, the TGI amounted to 90 µM.

For the molecule `CC(=O)O[C@H]1C#C/C=C\C#CC[C@@H]2C(=O)N[C@@H]12`, the TGI was found to be 98.9 µM.

Take `Cc1ccc2nc(Cl)c(/C=N/N3C(=O)/C(=C/c4ccccc4S)N=C3c3ccccc3)cc2c1`: the TGI is > 100 µM.

On to `CN(O)C(=O)c1cccc(Cl)c1`, for which the TGI is > 100 µM.

With `CCOP(=O)(OCC)c1c(C(=O)OC)cc(=O)[nH]c1-c1ccc(C)cc1`, the TGI was 53.8 µM.

With `COC(=O)C1=C(C(=O)OC)SC2(S1)C1=C(CCCC1)SC(C(=O)OC)=C2C(=O)OC`, the TGI amounted to 19.4 µM.

With `C1CCC2C(C1)CCCC2NC1=NCCO1` (stereo unspecified), the TGI is > 100 µM.

Regarding `Cc1cn(C2CC(n3cc(Cn4cc(Br)c(=O)[nH]c4=O)nn3)C(CO)O2)c(=O)[nH]c1=O` (stereo unspecified), the TGI is > 100 µM.

In the case of `C1CNCCNCCN1`, the TGI was > 100 µM.

Consider `COc1ccc(O)cc1`, for which the TGI was > 100 µM.

Consider `Cc1cn(C(Cc2ccccc2)OCCO)c(=O)[nH]c1=O` (stereo unspecified), for which the TGI is > 100 µM.

On to `O=c1nc2c(c(-c3ccccc3Cl)[nH]1)COC/C2=C\c1ccccc1Cl`, for which the TGI is > 100 µM.

For a further experiment, the system named is HCC-2998 colon. Description: inhibition of tumour cell growth, NCI panel, 48 h.
In turn, `O=c1[nH]/c(=C/c2ccc(OCc3ccccc3)cn2)c(=O)[nH]/c1=C/c1ccc(O)cc1` yielded a TGI of 5.21 µM.

The values above are taken from PubChem BioAssay (NCI).
